Read-outs that look alike come from different tables or passages of the source.
How the values were obtained:
[1] = system: DTD; conditions: cited from earlier work; for Substrate quality for DTD / pH dependence of metabolism by DTD: literature
[2] = system: DNA; conditions: literature; cited from earlier work
[3] = system: DTD-rich cell lines; conditions: literature; cited from earlier work
[4] = system: H596 and H460 cells; test: MTT continuous challenge cytotoxicity, ratio H596/H460; format: cell-based, human; conditions: ratio of cytotoxicities, five days, 7200 min
Protocol: (§1) The cell lines used in this work were HT29, H460, H596, BE. These were obtained from the ATCC or from the European Collection for Animal Cell Cultures, ECACC. HT29 is a human colon cancer cell line and H460 is a human large cell lung carcinoma cell line. These two cell lines were used as they express relatively high levels of DTD. […] Continuous challenge cytotoxicity studies were carried out on these cells (600 per well) in 96 well plates using the MTT method. After five days, the absorbances were read on a multiscan plate reader at 540 and 640nm. Plots were then drawn for inhibition of cell growth as a function concentration. Each compound was tested in triplicate at each concentration on at least two occasions.

[5] = system: BE and HT-29 cells; test: MTT continuous challenge cytotoxicity, ratio BE/HT-29; format: cell-based, human; conditions: ratio of cytotoxicities, five days, 7200 min
Protocol: as §1

[6] = system: spheroid; conditions: literature; cited from earlier work
[7] = Bibby et al. 1993; cited from earlier work
[8] = biological target: human recombinant DT-diaphorase (Homo sapiens, UniProt P15559); test: NADH removal and quinone removal by recombinant human DT-diaphorase, HPLC; format: biochemical; conditions: for NADH Removal / Quinone Removal: 0.05 mM quinone, 10-100 ng/ml rhDT-diaphorase, 0.2 mM NADH, 25 mM Tris pH 7.4, n=3
Protocol: The relative abilities of MeDZQ and RH1 to serve as substrates for human recombinant DT-diaphorase were determined. Both quinones (0.05 mM) were incubated with 10-100 ng/ml recombinant human DT-diaphorase and NADH (0.2 mM) in 25 mM Tris buffer, pH 7.4, containing 1 mM DETAPAC. NADH removal was measured by HPLC as described in Beall et al., (1995), supra.

[9] = system: BE human colon carcinoma cells and H460 human non-small cell lung cancer cells; test: MTT cytotoxicity, continuous four day exposure, BE versus H460 (FIG. 2); format: cell-based; conditions: four days, 5760 min
Protocol: (§2) The cell line BE is a human colon carcinoma that is described in Day et al., Carcinogenesis 1 :21-32 (1980).
The cytotoxicity of RH1 and MeDZQ to BE human colon carcinoma cells and H460 human non small cell lung cancer cells was determined. BE cells are DT-diaphorase null due to a mutation in the DT-diaphorase gene, while H460 cells have elevated DT-diaphorase levels (Traver et al., (1997) supra.). Cytotoxicity was determined using the MTT assay and cells were exposed to drug continuously throughout the four day assay.

[10] = system: H460 and H596 cells; conditions: Ross et al. 1993; cited from earlier work
[11] = cited from earlier work
[12] = system: DNA; conditions: Lee et al. 1992; cited from earlier work
[13] = system: NSCLC xenografts; conditions: cited from earlier work
[14] = system: 69 human tumor cell lines; conditions: p<0.016; cited from earlier work
[15] = system: CHO cell lines stably transfected with human DTD; conditions: Gustafson et al. 1996; cited from earlier work
[16] = system: cells under hypoxic conditions; conditions: hypoxic vs aerobic; cited from earlier work
[17] = Beall et al. 1994, 1995; cited from earlier work
[18] = system: NSCLC and breast cancer cell lines; conditions: Beall et al. 1995; cited from earlier work
[19] = system: H460 and H596 human non-small cell lung cancer cells; test: MTT cytotoxicity, 2 hour exposure, H460 versus H596 cells (FIG. 1); format: cell-based
Protocol: FIG. 1 compares the cytotoxicity of RH1 in human non small cell lung tumor cell lines with elevated DTD activity (H460) and those with no detectable DTD activity (H596). RH1 was 350 fold more toxic to tumor cells with elevated DTD activity than to DTD null cells.
Studies were conducted to determine the cytotoxicity of RH1 against human non small cell lung cancer cell lines. H596 cells are DT-diaphorase null due to a mutation in the DT-diaphorase gene, while H460 cells have elevated DT-diaphorase levels as described in Beall et al., (1995) supra and Traver et al., Br. J. Cancer, 75:69-75 (1997). The cell lines H460 and H596 are available from the American Tissue Type Culture Collection (ATCC), Rockville, Md. Cytotoxicity was determined after a 2 hour drug exposure in serumless medium using the MTT assay as described in detail in Beall et al., (1995), supra.

[20] = system: CHO812 and CHOglyA cells; test: Cytotoxicity of RH1 to CHOglyA and DTD-transfected CHO812 cells (FIG. 3); format: cell-based, chinese hamster
Protocol: as §2
Further studies were conducted to determine the cytotoxicity of RH1 to CHOglyA and CHO812 cells. CHOglyA cells have non detectable levels of DT-diaphorase, whereas CHO812 cells have elevated levels of DT-diaphorase as reported in Gustafson et al., (1996) supra. The original CHO cell lines were obtained from the American Type Culture Collection, Rockville, Md.

[21] = Solubility in aqueous solution; format: physicochemical; conditions: phosphate buffered saline; 25° C.
Protocol: (§3) RH1 is easily synthesized with very high purity (>99%). […] The RH1 solutions are very stable with a half life of RH1 in phosphate buffer (0.1 M, pH=7) of more than 2 days at 25° C.

[22] = Stability of RH1 in phosphate buffer; format: physicochemical
Protocol: as §3

[23] = system: DNA; test: DNA crosslinking sequence specificity; format: biochemical
[24] = Half-life in pharmacokinetics; conditions: attributed to free hydroxyl group / water solubility

Sequence of human recombinant DT-diaphorase (P15559 whole entry): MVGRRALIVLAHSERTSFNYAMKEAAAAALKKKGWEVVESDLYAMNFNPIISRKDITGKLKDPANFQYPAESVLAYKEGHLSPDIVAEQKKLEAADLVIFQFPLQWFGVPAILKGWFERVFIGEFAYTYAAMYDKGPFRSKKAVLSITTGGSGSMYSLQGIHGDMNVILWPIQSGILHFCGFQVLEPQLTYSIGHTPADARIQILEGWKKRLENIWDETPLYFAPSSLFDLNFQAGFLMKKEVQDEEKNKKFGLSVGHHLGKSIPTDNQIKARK

CCOC(=O)NC1=C(N2CC2)C(=O)C(NC(=O)OCC)=C(N2CC2)C1=O [AZQ, Diaziquone]
Substrate quality for DTD [1]: extremely poor substrate for DTD | DNA damage after reduction (crosslinks, strand breaks) [2]: does not readily form DNA crosslinks after reduction by DTD | Selectivity for DTD-rich cell lines [3]: failed to show any selectivity for DTD-rich cell lines

CC(=O)OCC1=C(N2CC2)C(=O)C(C)=C(N2CC2)C1=O [Acetyl-, 2-Acetoxymethyl-3,6-diaziridinyl-5-methyl-1,4-benzoquinone]
H596/H460 [4]: 4.7 | BE/HT-29 [5]: 5.2

CC1=C(N2CC2)C(=O)C(COC(=O)c2ccccc2)=C(N2CC2)C1=O [Benzoyl, benzoyl ester of RH1]
H596/H460 [4]: 4 | BE/HT-29 [5]: 0.1

Cn1c(/C=C/CO)c(CO)c2c1C(=O)C=C(N1CC1)C2=O [E09]
Substrate quality for DTD [1]: efficiently reduced by DTD | Activity / cytotoxicity in spheroid studies [6]: not active | DNA damage after reduction (crosslinks, strand breaks) [2]: exclusively form DNA strand breaks | Ability to penetrate cells and cross cellular membranes [7]: poor ability

CC1=C(N2CC2)C(=O)C(C)=C(N2CC2)C1=O [MeDZQ, 2,5-diaziridinyl-3,6-dimethyl-1,4-benzoquinone]
NADH Removal [8]: 21.6 ± 4.0 | Quinone Removal [8]: 9.7 ± 2.2 | Ratio of cytotoxicities of IC50, BE (no DTD activity) to H460 (elevated DTD activity) [9]: 33 | Cytotoxicity to H596 and H460 cells in comparison to RH1 [10]: less cytotoxic to both H596 and H460 cells | Differential toxicity to H460 cells (versus H596) [10]: 17 fold | solubility [11]: poor solubility | DNA crosslinking sequence [12]: GNC sequences | Effectiveness as a substrate for recombinant human DTD relative to mitomycin C ([1]; Beall et al. 1994, Ross et al. 1994): greater than 150 fold | Inhibition / inactivation of DTD at higher pHs [1]: does not inactivate DTD at higher pHs | pH dependence of metabolism by DTD [1]: pH-independent | Activity / cytotoxicity in spheroid studies [6]: increased cytotoxicity | Relationship between levels of reducing enzymes and efficacy in NSCLC xenografts ([13]; in vivo): confirmed the relationship between the levels of reducing enzymes and the efficacy | Correlation (r) between DTD activity and cytotoxicity [14]: 0.3033 | Cytotoxicity as a result of transfecting DTD into CHO cells [15]: markedly increased | Increase in cytotoxicity under hypoxic relative to aerobic conditions [16]: very modest increase in cytotoxicity | Stability of reactive hydroquinone metabolite [17]: appreciable stability | Correlation between DTD levels and cytotoxicity [18]: good correlation | DNA damage after reduction (crosslinks, strand breaks) [2]: absolute requirement for reduction of the drug

CC1=C(N2CC2)C(=O)C(CO)=C(N2CC2)C1=O [RH1, 2,5-diaziridinyl-3-(hydroxymethyl)-6-methyl-1,4-benzoquinone]
NADH Removal [8]: 45.2 ± 6.3 | Quinone Removal [8]: 28.2 ± 4.2 | Effectiveness as a substrate for DT-diaphorase, compared with MeDZQ ([8]; Example 2): more effective as a substrate for DT-diaphorase than MeDZQ | Cytotoxicity to tumor cell lines with elevated DTD activity, compared with MeDZQ [19]: more cytotoxic to tumor cell lines with elevated DTD activity | Selective killing of DTD-rich cells [19]: selectively kills cells rich in DTD | Fold toxicity to tumor cells with elevated DTD activity (H460) relative to DTD null cells (H596) ([19]; 2 hour exposure, MTT, FIG. 1): 350 fold | Ratio of cytotoxicities of IC50, BE (no DTD activity) to H460 (elevated DTD activity) [9]: 51 | Susceptibility of CHO-812 (DTD overexpressing) to cell killing relative to parent CHO-glyA [20]: more susceptible | H596/H460 [4]: 41 | BE/HT-29 [5]: 17.5 | solubility [21]: > 500 µg/mL | Stability of solutions [22]: very stable | half-life ([22]; 0.1 m phosphate buffer, 0.1 M, pH=7, 25° C.): > 48 h | DNA crosslinking sequence [23]: GCC sequences | Half-life in pharmacokinetics [24]: shorter half-life in pharmacokinetics

CO[C@@]12[C@H](COC(N)=O)C3=C(C(=O)C(C)=C(N)C3=O)N1C[C@@H]1N[C@@H]12 [mitomycin C]
Inhibition / inactivation of DTD at higher pHs [1]: pH-dependent inhibition of DTD at higher pHs | Substrate quality for DTD [1]: very poor substrate for DTD | pH dependence of metabolism by DTD [1]: pH-dependent | Susceptibility of NSCLC xenografts with high DTD activity versus SCLC xenografts with low DTD activity ([13]; literature): more susceptible

— patent US6156744A, “DT-diaphorase directed anti-tumor agents” (Cancer Research Campaign Tech (London), priority 1999, dated 2000)
